# Reference: the supplement of paper PMC8967900
# Experiments:
# Test in all cases: selective drug sensitivity score (sDSS, relative to normal bone marrow) (sDSS (score)); higher = more potent and effective on the cell line relative to normal bone marrow cells
# Details in all cases: 72 h
# [1] = system: 380
# [2] = system: 697
# [3] = system: CCRF-CEM
# [4] = system: CCRF-HSB2
# [5] = system: COG-LL-332h
# [6] = system: COG-LL-394h
# [7] = system: COG-LL-402h
# [8] = system: HAL-01
# [9] = system: KASUMI-10
# [10] = system: KASUMI-2
# [11] = system: KASUMI-9
# [12] = system: KOPN-8
# [13] = system: MHH-CALL-2
# [14] = system: MHH-CALL-3
# [15] = system: MHH-CALL-4
# [16] = system: MN-60
# [17] = system: NALL-1
# [18] = system: NALM-16
# [19] = system: P30-OHKUBO
# [20] = system: PF-382
# 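Note: ALL cell lines in 384-well plates, five doses spanning 10,000-fold, each plate scaled between vehicle and 100 µmol/L benzalkonium chloride controls, sDSS an adapted area-under-curve metric.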
compound,measurement,setting,value
COc1cc2c(cc1OC(C)C)[C@H](c1ccc(Cl)cc1)N(c1ccc(N(C)C[C@H]3CC[C@H](N4CCN(C)C(=O)C4)CC3)cc1)C(=O)C2 [NVP-CGM097] (top concentration 25000 nM),selective drug sensitivity score,[1],11.4
same,selective drug sensitivity score,[2],7.86
same,selective drug sensitivity score,[3],-4.24
same,selective drug sensitivity score,[4],8.76
same,selective drug sensitivity score,[5],8.26
same,selective drug sensitivity score,[6],6.56
same,selective drug sensitivity score,[7],12.1
same,selective drug sensitivity score,[8],10.6
same,selective drug sensitivity score,[9],11.7
same,selective drug sensitivity score,[10],8.16
same,selective drug sensitivity score,[11],14.5
same,selective drug sensitivity score,[12],10.4
same,selective drug sensitivity score,[13],10.8
same,selective drug sensitivity score,[14],13.1
same,selective drug sensitivity score,[15],7.06
same,selective drug sensitivity score,[16],-0.44
same,selective drug sensitivity score,[17],-6.34
same,selective drug sensitivity score,[18],-4.54
same,selective drug sensitivity score,[19],10.2
same,selective drug sensitivity score,[20],-5.04
CCOc1cc2ncc(C#N)c(Nc3ccc(OCc4ccccn4)c(Cl)c3)c2cc1NC(=O)/C=C/CN(C)C [Neratinib] (top concentration 1000 nM),selective drug sensitivity score,[1],4.98
same,selective drug sensitivity score,[2],6.28
same,selective drug sensitivity score,[3],2.48
same,selective drug sensitivity score,[4],1.78
same,selective drug sensitivity score,[5],1.88
same,selective drug sensitivity score,[6],5.48
same,selective drug sensitivity score,[7],7.78
same,selective drug sensitivity score,[8],-0.42
same,selective drug sensitivity score,[9],3.68
same,selective drug sensitivity score,[10],-0.72
same,selective drug sensitivity score,[11],3.68
same,selective drug sensitivity score,[12],2.28
same,selective drug sensitivity score,[13],2.58
same,selective drug sensitivity score,[14],4.98
same,selective drug sensitivity score,[15],-0.22
same,selective drug sensitivity score,[16],0.38
same,selective drug sensitivity score,[17],-0.32
same,selective drug sensitivity score,[18],1.78
same,selective drug sensitivity score,[19],2.78
same,selective drug sensitivity score,[20],0.88
COc1ncc(-c2ccc3nccc(-c4ccnnc4)c3c2)cc1NS(=O)(=O)c1ccc(F)cc1F [Omipalisib] (top concentration 1000 nM),selective drug sensitivity score,[1],22.2
same,selective drug sensitivity score,[2],11.9
same,selective drug sensitivity score,[3],12
same,selective drug sensitivity score,[4],8.4
same,selective drug sensitivity score,[5],3.2
same,selective drug sensitivity score,[6],-1.1
same,selective drug sensitivity score,[7],13.4
same,selective drug sensitivity score,[8],20.1
same,selective drug sensitivity score,[9],1.6
same,selective drug sensitivity score,[10],12.9
same,selective drug sensitivity score,[11],12.6
same,selective drug sensitivity score,[12],15.1
same,selective drug sensitivity score,[13],11
same,selective drug sensitivity score,[14],11.4
same,selective drug sensitivity score,[15],13.1
same,selective drug sensitivity score,[16],8.9
same,selective drug sensitivity score,[17],4.5
same,selective drug sensitivity score,[18],8.1
same,selective drug sensitivity score,[19],18.6
same,selective drug sensitivity score,[20],9.8
CN1CCN(c2cc(C(=O)Nc3ccc4c(c3)-c3c(c(C(N)=O)nn3-c3ccc(F)cc3)CC4)c(Cl)cn2)CC1 [PHA-408] (top concentration 10000 nM),selective drug sensitivity score,[1],5.68
same,selective drug sensitivity score,[2],0.78
same,selective drug sensitivity score,[3],0.48
same,selective drug sensitivity score,[4],1.88
same,selective drug sensitivity score,[5],2.98
same,selective drug sensitivity score,[6],-1.22
same,selective drug sensitivity score,[7],-3.92
same,selective drug sensitivity score,[8],2.58
same,selective drug sensitivity score,[9],0.18
same,selective drug sensitivity score,[10],4.48
same,selective drug sensitivity score,[11],2.48
same,selective drug sensitivity score,[12],3.88
same,selective drug sensitivity score,[13],1.58
same,selective drug sensitivity score,[14],-0.72
same,selective drug sensitivity score,[15],2.18
same,selective drug sensitivity score,[16],-4.12
same,selective drug sensitivity score,[17],-0.82
same,selective drug sensitivity score,[18],-4.62
same,selective drug sensitivity score,[19],1.48
same,selective drug sensitivity score,[20],1.48
OC[C@H]1O[C@@H](n2cnc3c2N=CNC[C@H]3O)C[C@@H]1O [Pentostatin] (top concentration 10000 nM),selective drug sensitivity score,[1],-0.44
same,selective drug sensitivity score,[2],-0.44
same,selective drug sensitivity score,[3],-0.34
same,selective drug sensitivity score,[4],-0.44
same,selective drug sensitivity score,[5],-0.44
same,selective drug sensitivity score,[6],-0.44
same,selective drug sensitivity score,[7],-0.44
same,selective drug sensitivity score,[8],0.36
same,selective drug sensitivity score,[9],-0.44
same,selective drug sensitivity score,[10],-0.44
same,selective drug sensitivity score,[11],-0.44
same,selective drug sensitivity score,[12],-0.14
same,selective drug sensitivity score,[13],-0.44
same,selective drug sensitivity score,[14],-0.44
same,selective drug sensitivity score,[15],-0.44
same,selective drug sensitivity score,[16],-0.44
same,selective drug sensitivity score,[17],-0.44
same,selective drug sensitivity score,[18],-0.44
same,selective drug sensitivity score,[19],-0.44
same,selective drug sensitivity score,[20],-0.44
CC(C)N(C[C@H]1O[C@@H](n2cnc3c(N)ncnc32)[C@H](O)[C@@H]1O)[C@H]1C[C@@H](CCc2nc3cc(C(C)(C)C)ccc3[nH]2)C1 [Pinometostat] (top concentration 1000 nM),selective drug sensitivity score,[1],0
same,selective drug sensitivity score,[2],0
same,selective drug sensitivity score,[3],0
same,selective drug sensitivity score,[4],0
same,selective drug sensitivity score,[5],0
same,selective drug sensitivity score,[6],0
same,selective drug sensitivity score,[7],0
same,selective drug sensitivity score,[8],0
same,selective drug sensitivity score,[9],0
same,selective drug sensitivity score,[10],0
same,selective drug sensitivity score,[11],0
same,selective drug sensitivity score,[12],0
same,selective drug sensitivity score,[13],0
same,selective drug sensitivity score,[14],0
same,selective drug sensitivity score,[15],0
same,selective drug sensitivity score,[16],0.3
same,selective drug sensitivity score,[17],0
same,selective drug sensitivity score,[18],0
same,selective drug sensitivity score,[19],0
same,selective drug sensitivity score,[20],0
Cc1ccc(=O)n(-c2ccccc2)c1 [Pirfenidone] (top concentration 10000 nM),selective drug sensitivity score,[1],0
same,selective drug sensitivity score,[2],0
same,selective drug sensitivity score,[3],0
same,selective drug sensitivity score,[4],0
same,selective drug sensitivity score,[5],0
same,selective drug sensitivity score,[6],0
same,selective drug sensitivity score,[7],0
same,selective drug sensitivity score,[8],0
same,selective drug sensitivity score,[9],0
same,selective drug sensitivity score,[10],0
same,selective drug sensitivity score,[11],0
same,selective drug sensitivity score,[12],0
same,selective drug sensitivity score,[13],0
same,selective drug sensitivity score,[14],0
same,selective drug sensitivity score,[15],0
same,selective drug sensitivity score,[16],0
same,selective drug sensitivity score,[17],0
same,selective drug sensitivity score,[18],0
same,selective drug sensitivity score,[19],0
same,selective drug sensitivity score,[20],0
NCCNc1ccc(NCCN)c2c1C(=O)c1ccncc1C2=O [Pixantrone] (top concentration 10000 nM),selective drug sensitivity score,[1],-2.76
same,selective drug sensitivity score,[2],-0.36
same,selective drug sensitivity score,[3],-2.06
same,selective drug sensitivity score,[4],-2.16
same,selective drug sensitivity score,[5],-2.46
same,selective drug sensitivity score,[6],-2.66
same,selective drug sensitivity score,[7],-2.76
same,selective drug sensitivity score,[8],-1.36
same,selective drug sensitivity score,[9],-1.36
same,selective drug sensitivity score,[10],-2.76
same,selective drug sensitivity score,[11],-0.36
same,selective drug sensitivity score,[12],-0.56
same,selective drug sensitivity score,[13],1.34
same,selective drug sensitivity score,[14],-2.76
same,selective drug sensitivity score,[15],-2.56
same,selective drug sensitivity score,[16],-2.76
same,selective drug sensitivity score,[17],-2.76
same,selective drug sensitivity score,[18],-2.76
same,selective drug sensitivity score,[19],-1.06
same,selective drug sensitivity score,[20],-1.86
c1cc(CN2CCCNCCNCCCNCC2)ccc1CN1CCCNCCNCCCNCC1 [Plerixafor] (top concentration 10000 nM),selective drug sensitivity score,[1],0
same,selective drug sensitivity score,[2],0.7
same,selective drug sensitivity score,[3],0
same,selective drug sensitivity score,[4],0
same,selective drug sensitivity score,[5],0
same,selective drug sensitivity score,[6],0
same,selective drug sensitivity score,[7],0
same,selective drug sensitivity score,[8],0
same,selective drug sensitivity score,[9],0
same,selective drug sensitivity score,[10],0
same,selective drug sensitivity score,[11],0
same,selective drug sensitivity score,[12],0
same,selective drug sensitivity score,[13],0
same,selective drug sensitivity score,[14],0
same,selective drug sensitivity score,[15],0
same,selective drug sensitivity score,[16],0
same,selective drug sensitivity score,[17],0
same,selective drug sensitivity score,[18],0
same,selective drug sensitivity score,[19],0
same,selective drug sensitivity score,[20],0
